Structures are written as SMILES.

We go through 3 compounds from PMC8016363, “Discovery of a Remarkable Methyl Shift Effect in the Vanilloid Activity of Triterpene Amides” (Journal of Natural Products, 2020).

For assay [1], the target named is T1, recombinant human TRPV1 (hTRPV1) (Homo sapiens, UniProt Q8NER1). Also on record: expressed in transfected cells; method as in PMID 23932918, PMID 30496739. To be noted: previously reported; cited from earlier work.
Assay [2] has as its target T1, recombinant human TRPV1 (hTRPV1). In words: TRPV1 channel assay: intracellular Ca2+ elevation (Fluo-4) in HEK-293 cells overexpressing hTRPV1. It is filed as cell-based. Also on record: expressed in transfected cells; host or cells: HEK-293 cells, stably transfected, selected with Geneticin.

T1 sequence (Q8NER1 whole entry): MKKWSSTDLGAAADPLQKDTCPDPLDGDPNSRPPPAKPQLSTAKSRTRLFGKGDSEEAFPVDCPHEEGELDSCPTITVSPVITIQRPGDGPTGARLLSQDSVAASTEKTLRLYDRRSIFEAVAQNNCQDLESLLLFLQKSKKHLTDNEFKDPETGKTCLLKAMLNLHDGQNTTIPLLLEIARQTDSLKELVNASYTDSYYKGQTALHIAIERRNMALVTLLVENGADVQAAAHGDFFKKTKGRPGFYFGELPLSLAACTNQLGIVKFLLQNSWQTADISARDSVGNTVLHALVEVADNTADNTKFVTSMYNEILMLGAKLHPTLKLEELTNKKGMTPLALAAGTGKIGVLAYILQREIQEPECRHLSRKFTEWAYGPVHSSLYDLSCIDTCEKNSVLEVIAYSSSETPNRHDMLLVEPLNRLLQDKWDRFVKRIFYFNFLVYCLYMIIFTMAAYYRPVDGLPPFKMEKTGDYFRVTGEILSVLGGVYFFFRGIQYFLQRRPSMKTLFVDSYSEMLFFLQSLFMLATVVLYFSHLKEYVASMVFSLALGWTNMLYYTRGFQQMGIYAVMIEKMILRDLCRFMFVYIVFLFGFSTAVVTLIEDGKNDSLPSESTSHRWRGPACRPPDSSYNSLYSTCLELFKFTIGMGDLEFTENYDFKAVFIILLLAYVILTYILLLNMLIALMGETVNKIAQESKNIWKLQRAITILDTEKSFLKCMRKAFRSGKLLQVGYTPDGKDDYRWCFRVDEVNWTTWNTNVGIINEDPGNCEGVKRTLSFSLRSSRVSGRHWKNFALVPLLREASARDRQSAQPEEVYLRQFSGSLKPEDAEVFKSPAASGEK

On to `C[C@H]1[C@H](C)CC[C@]2(C(=O)O)CC[C@]3(C)C(=CC[C@@H]4[C@@]5(C)CC[C@H](O)C(C)(C)[C@@H]5CC[C@]43C)[C@H]12` [3a, ursolic acid], for which the “behaviour at TRPV1 (in words)” value in assay [1] is given as “weak antagonists”.
Turning to `CC1(C)CC[C@]2(C(=O)O)CC[C@]3(C)C(=CC[C@@H]4[C@@]5(C)CC[C@H](O)C(C)(C)[C@@H]5CC[C@]43C)[C@@H]2C1` [2a, oleanolic acid], the “behaviour at TRPV1 (in words)” value in assay [1] is recorded as “weak antagonists”. Also, in assay [2] (HEK293, read-out: inhibition of the capsaicin response), the inhibition (as a rule, the change of the read-out against control, counted positive when it falls) at 25 µM stood at 20 ± 3%.
With `COc1cc(CNC(=O)[C@]23CC[C@@H](C)[C@H](C)[C@H]2C2=CC[C@@H]4[C@@]5(C)CC[C@H](O)C(C)(C)[C@@H]5CC[C@@]4(C)[C@]2(C)CC3)ccc1O` [3b, Ursoloyl vanillamide], the “efficacy (relative to ionomycin 4 μM)” value in assay [2] (HEK-293 cells stably transfected with hTRPV1, [Ca2+]i increase normalized to the response to ionomycin 4 μM) is 16 ± 1. Besides, the EC50 – broadly, the midpoint of the concentration-response curve – in assay [2] (HEK-293 cells stably transfected with hTRPV1, half-maximal increase in [Ca2+]i, read-out: potency EC50) came out at 5.4 ± 2.3 µM. In assay [2] (read-out: IC50 (capsaicin 0.1 μM), HEK-293-hTRPV1, compound added 5 min before capsaicin 100 nM, capsaicin alone = 100%), the IC50 (in general, the point on the concentration scale where inhibition reaches its midpoint) is 7.5 ± 0.7 µM.
